Reference: patent publication US20230131899A1, “INHIBITORS OF MICROBIALLY INDUCED AMYLOID” (Axial Therapeutics, Inc., priority 2020, published 2023)
Where two headings read alike, the source gives them in different places.

System: CsgA gene expression (csgBAC promoter-GFP reporter) in E. coli UTI89
Test: In vitro live cell fluorescent reporter assay of CsgA transcription (Reporter Assay)
Type: cell-based
Conditions: Escherichia coli
Experimental: In vitro live cell fluorescent reporter assay to determine effects of compounds on CsgA transcription. To assess the impact of compounds on CsgA gene expression, a live cell assay was performed using an engineered strain of E. coli UTI89 with a fluorescent CsgA gene expression reporter driven by the csgBAC promoter. In the reporter strain, a gene encoding Green Fluorescent Protein (GFP) was placed immediately downstream of the full intergenic region between csgDEF and csgBAC, containing the csgBAC promoter and other transcriptional regulatory elements, and inserted in single copy into the E. coli UTI89 chromosome, as described in Cegelski et. al., “Small-molecule inhibitors target Escherichia coli amyloid biogenesis and biofilm formation,” Nat. Chem. Bio., 25 Oct. 2009. With this construct, GFP expression in the reporter strain was under the same regulation as CsgA expression. The reporter strain was struck out on a YESCA agar plate (1 g/L yeast extract, 10 g/L casamino acids, 20 g/L Bacto Agar) and grown at about 27° C. for 2 days, or until single colonies were sufficiently large to pick. A single colony of the reporter strain was used to inoculate 5 mL of YESCA broth (1 g/L yeast extract, 10 g/L casamino acids), which was grown overnight at about 27° C. The inoculum was diluted 1:10 in YESCA broth and the optical density at 600 nm (OD600) was measured on a SpectraMax M2 or M5e (Molecular Devices, San Jose, Calif.) spectrophotometer in cuvettes. The culture was then further diluted to achieve a final OD600 of 0.003, which was confirmed by measurement of the OD600. Compounds were diluted in dimethyl sulfoxide (DMSO) and plated on black clear-bottomed tissue culture-treated 96-well plates with 1.5 μL/well for final test concentrations from 0.14-100 μM. All assay wells, including vehicle controls and positive controls for inhibition, included 1% DMSO final. Vehicle control wells consisted of DMSO and the reporter strain to assess the expression of the reporter strain in the assay in the absence of any compound. […] 148.5 μL culture at OD600 0.003 in YESCA broth was added to all wells for 150 μL final volume. Plates were incubated at 27° C. for 20 hours, then GFP fluorescence signal for each well was read on a Spectramax M2 or M5e plate reader with excitation at 485 nm, emission at 525 nm, and a cutoff at 515 nm. OD600 for each well was also measured on the Spectramax M2 or M5e plate reader. […] Background fluorescence was subtracted from all wells, then fluorescence signal for each well was normalized to the mean of the vehicle control wells. Normalized dose response curves were plotted for each compound, and compound inhibition of CsgA transcription was determined by assessing the curve-fit IC50, bottom, top, span (top-bottom), and Hill slope using GraphPad Prism software version 8.1.1 (GraphPad Software, San Diego, Calif.). An additional metric used to evaluate compounds was the concentration at which the curve reached 50% of the expression level of the vehicle control. This was written as a custom analysis in GraphPad Prism according to the formula X[50], or the X value at which Y=50, ie, the compound concentration at which fluorescence of the reporter strain was calculated to reach 50% of the vehicle control fluorescence. Separately from the fluorescence data, OD600 values were normalized to the mean of the vehicle control wells, and dose response curves were plotted for each compound. OD600 reduction of greater than 10% indicated compounds had some toxicity or negative impact on bacterial growth. […]

[1] = read-out: Reporter Assay Abs IC50 (μM), median Abs IC50 in the CsgA reporter assay, N/A = maximum expression reduction is <50% of control
[2] = read-out: Reporter Assay Abs IC50, activity range, class symbol
[3] = read-out: Reporter Assay Abs IC50 (activity range), median Abs IC50 in the CsgA reporter assay, class symbol

Work on `O=C(O)C1CN(Cc2ccccc2)c2c(-c3cccc(C(F)(F)F)c3)c(Cc3cccc4cnccc34)cc(=O)n21` (stereo not shown) [Compound 223, 1-benzyl-7-(isoquinolin-5-ylmethyl)-5-oxo-8-(3-(trifluoromethyl)phenyl)-1,2,3,5-tetrahydroimidazo[1,2-a] pyridine-3-carboxylate] yielded an IC50 [1] of 21.7 µM and an IC50 [2] of over 10 µM.

`COc1ccc(Cc2cc(=O)n3c(c2-c2cccc(C(F)(F)F)c2)N(Cc2ccccc2)CC3C(=O)O)c2ccccc12` (stereo not shown) [Compound 220, 1-benzyl-7-((4-methoxynaphthalen-1-yl)methyl)-5-oxo-8-(3-(trifluoromethyl)phenyl)-1,2,3,5-tetrahydroimidazo[1,2-a]pyridine-3-carboxylic acid] gave an IC50 [1] of 1.2 µM and an IC50 [2] of under 1.3 µM.

For `O=C(O)C1CN(Cc2ccccc2)c2c(-c3cccc(C(F)(F)F)c3)c(CCc3ccccc3)c(Cl)c(=O)n21` (stereo not shown) [Compound 240, 1-benzyl-6-chloro-5-oxo-7-phenethyl-8-(3-(trifluoromethyl)phenyl)-1,2,3,5-tetrahydroimidazo[1,2-a]pyridine-3-carboxylic acid], the IC50 [1] was 1.4 µM and the IC50 [2] was 1.3 to 4.5 µM.

`CC(C)(C)c1cccc(Cc2cc(=O)n3c(c2-c2cccc(C(F)(F)F)c2)N(Cc2ccccc2)CC3C(=O)O)c1` (stereo not shown) [Compound 226, 1-benzyl-7-(3-(tert-butyl)benzyl)-5-oxo-8-(3-(trifluoromethyl)phenyl)-1,2,3,5-tetrahydroimidazo[1,2-a] pyridine-3-carboxylic acid] showed an IC50 [1] of 2.7 µM.

With `O=C(O)C1CN(Cc2ccccc2)c2c(-c3cccc(C(F)(F)F)c3)c(Cc3cccc4cccnc34)cc(=O)n21` (stereo not shown) [Compound 224, 1-benzyl-5-oxo-7-(quinolin-8-ylmethyl)-8-(3-(trifluoromethyl)phenyl)-1,2,3,5-tetrahydroimidazo[1,2-a]pyridine-3-carboxylic acid] the IC50 [1] was 9.7 µM and the IC50 [2] was 4.6 to 10 µM.

`O=C(O)C1CN(Cc2ccccc2)c2c(-c3cccc(C(F)(F)F)c3)c(CN3CCCc4ccccc43)cc(=O)n21` (stereo not shown) [Compound 228, 1-benzyl-7-((3,4-dihydroquinolin-1 (2H)-yl)methyl)-5-oxo-8-(3-(trifluoromethyl)phenyl)-1,2,3,5-tetrahydroimidazo[1,2-a]pyridine-3-carboxylic acid] gave an IC50 [1] of 3.9 µM and an IC50 [2] of 1.3 to 4.5 µM.

`CCCCN1CC(C(=O)O)n2c(c(-c3cccc(C(F)(F)F)c3)c(Cc3cccc4ccccc34)cc2=O)S1(=O)=O` (racemic) [Compound 021, 2-butyl-8-(naphthalen-1-ylmethyl)-6-oxo-9-(3-(trifluoromethyl)phenyl)-3,4-dihydro-2H,6H-pyrido[1,2-e][1,2,5]thiadiazine-4-carboxylic acid 1,1-dioxide] gave an IC50 [3] of 1.3 to 4.5 µM and an IC50 [1] of 2.6 µM.

`O=C(O)C1CN(Cc2ccccc2)c2c(-c3cccc(C(F)(F)F)c3)c(Cc3ccccc3)cc(=O)n21` (stereo not shown) [Compound 235, 1,7-dibenzyl-5-oxo-8-(3-(trifluoromethyl)phenyl)-1,2,3,5-tetrahydroimidazo[1,2-a]pyridine-3-carboxylic acid] gave an IC50 [1] of 2.7 µM and an IC50 [2] of 1.3 to 4.5 µM.

Compound `O=C(O)C1CN(Cc2ccccc2)c2c(-c3cccc(C(F)(F)F)c3)c(CN3CCC[C@H](c4ccccc4)C3)c(Cl)c(=O)n21` (stereo partly drawn) [Compound 237, 1-benzyl-6-chloro-5-oxo-7-(((R)-3-phenylpiperidin-1-yl)methyl)-8-(3-(trifluoromethyl)phenyl)-1,2,3,5-tetrahydroimidazo[1,2-a]pyridine-3-carboxylic acid] has an IC50 [1] of 1.3 µM and an IC50 [2] of 1.3 to 4.5 µM.

`CC(C)(C)c1ccc(Cc2cc(=O)n3c(c2-c2cccc(C(F)(F)F)c2)N(Cc2ccccc2)CC3C(=O)O)cc1` (stereo not shown) [Compound 227, 1-benzyl-7-(4-(tert-butyl)benzyl)-5-oxo-8-(3-(trifluoromethyl)phenyl)-1,2,3,5-tetrahydroimidazo[1,2-a] pyridine-3-carboxylic acid] showed an IC50 [1] of 1.8 µM and an IC50 [2] of 1.3 to 4.5 µM.

With `COc1ccc(Cc2c(-c3cccc(C(F)(F)F)c3)c3n(c(=O)c2Cl)C(C(=O)O)CN3Cc2ccccc2)c2ccccc12` (stereo not shown) [Compound 219, 1-benzyl-6-chloro-7-((4-methoxynaphthalen-1-yl)methyl)-5-oxo-8-(3-(trifluoromethyl)phenyl)-1,2,3,5-tetrahydroimidazo[1,2-a]pyridine-3-carboxylic acid] the IC50 [1] was 0.8 µM and the IC50 [2] was under 1.3 µM.

`O=C(O)C1CN(Cc2ccccc2)c2c(-c3cccc(C(F)(F)F)c3)c(CN3CCC[C@@H](c4ccccc4)C3)cc(=O)n21` (stereo partly drawn) [Compound 231, 1-benzyl-5-oxo-7-(((S)-3-phenylpiperidin-1-yl)methyl)-8-(3-(trifluoromethyl)phenyl)-1,2,3,5-tetrahydroimidazo[1,2-a]pyridine-3-carboxylic acid] showed an IC50 [1] of 3.4 µM and an IC50 [2] of 1.3 to 4.5 µM.

`O=C(O)C1CN(Cc2ccccc2)c2c(-c3cccc(C(F)(F)F)c3)c(Cc3cccc4ncccc34)cc(=O)n21` (stereo not shown) [Compound 222, 1-benzyl-5-oxo-7-(quinolin-5-ylmethyl)-8-(3-(trifluoromethyl)phenyl)-1,2,3,5-tetrahydroimidazo[1,2-a]pyridine-3-carboxylic acid] showed an IC50 [1] of 31.8 µM and an IC50 [2] of over 10 µM.

Compound `O=C(O)C1CN(Cc2ccccc2)c2c(-c3cccc(C(F)(F)F)c3)c(CCc3ccccc3)cc(=O)n21` (stereo not shown) [Compound 236, 1-benzyl-5-oxo-7-phenethyl-8-(3-(trifluoromethyl)phenyl)-1,2,3,5-tetrahydroimidazo[1,2-a]pyridine-3-carboxylic acid] has an IC50 [1] of 1.7 µM and an IC50 [2] of 1.3 to 4.5 µM.

For `O=C(O)C1CN(Cc2ccccc2)c2c(-c3cccc(C(F)(F)F)c3)c(CN3CCC[C@@H](c4ccccc4)C3)c(Cl)c(=O)n21` (stereo partly drawn) [Compound 230, 1-benzyl-6-chloro-5-oxo-7-(((S)-3-phenylpiperidin-1-yl)methyl)-8-(3-(trifluoromethyl)phenyl)-1,2,3,5-tetrahydroimidazo[1,2-a]pyridine-3-carboxylic acid], the IC50 [1] was 1.2 µM and the IC50 [2] was under 1.3 µM.

`CN1CC(C(=O)O)n2c(c(-c3cccc(C(F)(F)F)c3)c(Cc3cccc4ccccc34)cc2=O)S1(=O)=O` (racemic) [Compound 008, 2-methyl-8-(naphthalen-1-ylmethyl)-6-oxo-9-(3-(trifluoromethyl)phenyl)-3,4-dihydro-2H,6H-pyrido[1,2-e][1,2,5]thiadiazine-4-carboxylic acid 1,1-dioxide] showed an IC50 [3] of 1.3 to 4.5 µM and an IC50 [1] of 4.3 µM.

`O=C(O)C1CN(Cc2ccccc2)c2c(-c3cccc(C(F)(F)F)c3)c(Cc3ccc(Cl)c4ccccc34)c(Cl)c(=O)n21` (stereo not shown) [Compound 225, 1-benzyl-6-chloro-7-((4-chloronaphthalen-1-yl)methyl)-5-oxo-8-(3-(trifluoromethyl)phenyl)-1,2,3,5-tetrahydroimidazo[1,2-a]pyridine-3-carboxylic acid] was tested, and the IC50 [1] was 1.6 µM and the IC50 [2] was 1.3 to 4.5 µM.

In the case of `O=C(O)C1CN(Cc2ccccc2)c2c(-c3cccc(C(F)(F)F)c3)c(Cc3cncc4ccccc34)cc(=O)n21` (stereo not shown) [Compound 221, 1-benzyl-7-(isoquinolin-4-ylmethyl)-5-oxo-8-(3-(trifluoromethyl)phenyl)-1,2,3,5-tetrahydroimidazo[1,2-a]pyridine-3-carboxylic acid], the IC50 [1] is reported as 6.7 µM and the IC50 [2] is reported as 4.6 to 10 µM.

Work on `O=C(O)c1c[nH]c2c(-c3cccc(C(F)(F)F)c3)c(Cc3cccc4ccccc34)cc(=O)n12` [Compound 110, 7-(naphthalen-1-ylmethyl)-5-oxo-8-(3-(trifluoromethyl)phenyl)-1,5-dihydroimidazo[1,2-a]pyridine-3-carboxylic acid] yielded an IC50 [3] of over 10 µM and an IC50 [1] of 13.7 µM.
